The record followed here is ChEMBL document CHEMBL1158775, “Quinones from Chirita eburnea” (J Nat Prod, 2005).

The subject of the assay is Radical scavenging activity. The assay is described as follows: Antioxidant activity assessed as DPPH radical scavenging activity. Format: functional.
Turning to `C[C@@H]1OC2=C(C(=O)c3ccc(O)c(O)c3C2=O)C1(C)C`, the IC50 was 125 µM. On to `O=C1O[C@H]([C@@H](O)CO)C(O)=C1O` [ASCORBIC ACID], for which the half-maximal inhibitory concentration (IC50) was found to be 86.9 µM. The figure for `COc1c(O)cc2c(c1O)C(=O)C1=C(C2=O)C(C)(C)[C@H](C)O1` is 45.7 µM.
